Test results taken from publication PMC11003481, “Synthesis, biological evaluation, and computational studies of N-benzyl pyridinium–curcumin derivatives as potent AChE inhibitors with antioxidant activity” (Journal of Enzyme Inhibition and Medicinal Chemistry, 2023).
Values joined by “and” are separate entries in the source; they are usually repeats but may differ in a detail not shown here. Identical values can stand only once.

Assays:
[1] = target: acetylcholinesterase (eeAChE, from Electrophorus electricus) (Electrophorus electricus, UniProt O42275); test: biochemical; details: for Selectivity Index (SI) (AChE): Selectivity ratio [IC50(BChE)/IC50(AChE)]; for IC50: eeAChE, mean ± SEM of three independent experiments, duplicate samples, read-out: IC50 ± SEM AChE
Sequence of acetylcholinesterase (eeAChE, from Electrophorus electricus) (O42275 24-633): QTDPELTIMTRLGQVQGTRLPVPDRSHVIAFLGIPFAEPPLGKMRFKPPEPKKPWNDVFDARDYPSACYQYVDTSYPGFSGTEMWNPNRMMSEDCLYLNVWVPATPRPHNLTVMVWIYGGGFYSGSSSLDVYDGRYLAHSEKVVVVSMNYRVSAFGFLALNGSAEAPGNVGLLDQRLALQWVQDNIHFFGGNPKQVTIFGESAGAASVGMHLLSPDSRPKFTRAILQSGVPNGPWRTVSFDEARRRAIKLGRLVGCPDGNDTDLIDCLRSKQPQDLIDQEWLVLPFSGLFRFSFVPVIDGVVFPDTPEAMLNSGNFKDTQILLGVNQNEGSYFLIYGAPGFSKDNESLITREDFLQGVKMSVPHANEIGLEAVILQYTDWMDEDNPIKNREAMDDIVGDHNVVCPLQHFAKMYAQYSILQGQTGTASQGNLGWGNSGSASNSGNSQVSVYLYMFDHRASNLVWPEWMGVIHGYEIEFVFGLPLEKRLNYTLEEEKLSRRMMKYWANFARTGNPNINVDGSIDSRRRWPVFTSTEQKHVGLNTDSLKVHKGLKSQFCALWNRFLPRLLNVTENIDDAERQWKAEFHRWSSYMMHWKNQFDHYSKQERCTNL
Description: (§1) The AChE and BChE inhibitory activity assays were performed using a BioTek Epoch 2 microplate spectrophotometer in clear, flat-bottom 96-well plates. […] To each well, 295 µL phosphate buffer pH 8.0, 10 µL enzyme solution (AChE/BChE), and 10 µL target compound solutions were added together and allowed to stand for 4 min at room temperature. Then, 10 µL of 0.01 M solution freshly prepared Ellman’s reagent 5,5′-dithiobis(2-nitrobenzoic acid) (DTNB) was added to each well. The reaction in the wells was started by the addition of 2 µL of 0.075 M solution freshly prepared substrate (ATCh (acetylthiocholine iodide)/BTCh (S-butyrylthiocholine iodide)) solution. The solution was mixed immediately and incubated for 2:30 min for AChE or for 5 min for BChE inside the microplate reader at 26 °C. […] The IC50 values were calculated graphically by nonlinear regression analysis of inhibition curves that were obtained by plotting the logarithm of the inhibitor concentrations versus the percentage of inhibition (log(inhibitor) vs. normalised response) using GraphPad Prism 8 software (See Supplementary Information for details).

[2] = target: T1, butyrylcholinesterase (eqBChE, from equine serum) (Equus caballus, UniProt P81908); test: biochemical; details: mean ± SEM of three independent experiments, duplicate samples, read-out: IC50 ± SEM BChE
T1 construct: butyrylcholinesterase (eqBChE, from equine serum); from tissue; host or cells: equine serum
T1 sequence (P81908 whole entry): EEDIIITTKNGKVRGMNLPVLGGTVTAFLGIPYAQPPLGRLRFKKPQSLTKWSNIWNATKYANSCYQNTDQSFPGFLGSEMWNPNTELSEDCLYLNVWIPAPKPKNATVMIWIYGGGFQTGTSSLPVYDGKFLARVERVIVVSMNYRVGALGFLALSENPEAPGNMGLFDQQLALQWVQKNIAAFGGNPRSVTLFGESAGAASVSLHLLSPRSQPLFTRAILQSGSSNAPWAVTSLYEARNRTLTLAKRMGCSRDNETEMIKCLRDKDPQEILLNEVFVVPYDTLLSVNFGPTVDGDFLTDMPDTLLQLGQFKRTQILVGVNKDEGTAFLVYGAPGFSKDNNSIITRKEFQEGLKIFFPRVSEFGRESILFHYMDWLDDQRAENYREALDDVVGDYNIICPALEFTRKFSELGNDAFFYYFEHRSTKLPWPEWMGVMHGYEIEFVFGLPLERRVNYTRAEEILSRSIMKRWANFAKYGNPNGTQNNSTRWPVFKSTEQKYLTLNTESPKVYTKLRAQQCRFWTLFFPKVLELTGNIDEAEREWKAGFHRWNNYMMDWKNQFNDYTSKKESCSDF
Description: as §1

[3] = ABTS radical cation decolorisation antioxidant assay
Description: The antioxidant activity was determined using a radical cation (ABTS^.+) decolorisation assay, as described by Xiao et al.[21] with a few modifications. The assay used a BioTek Epoch 2 microplate spectrophotometer (Agilent, USA) with clear, flat-bottom 96-well plates. The 7 mmol/L ABTS^.+ stock solution was prepared by dissolving 96.02 mg ABTS in acetic acid buffer (pH 4.5) and to a final volume of 25 ml, which was kept in the dark at 0–4 °C. A 2.45 mmol/L potassium persulfate (K2S2O8) stock solution was prepared by dissolving 66.24 mg K2S2O8 in acetic acid buffer solution with pH 4.5, and then diluted to 100 ml and kept in the dark at 0–4 °C. The ABTS working solution was prepared by mixing similar quantities of 7 mmol/L ABTS and 2.45 mmol/L K2S2O8. This solution was stored in a dark cabinet for 16 h before use, when it was diluted with distilled water to obtain an absorbance of 0.70 at 734 nm. In a clear, flat-bottom 96-well plate, 200 μL of ABTS working solution and 10.0 μL sample solution at different concentrations (0.0312–0.5 mg/mL) were mixed well and incubated in the dark for 7 min before the absorbance was measured at 734 nm using a microplate reader. A blank was run for each assay, and all measurements were performed after 7 min. The ABTS scavenging capacity of inhibitors was compared with that of trolox and α-tocopherol. […]

[4] = target: eeAChE (Electrophorus electricus, UniProt O42275); test: biochemical; format: biochemical; details: for Ki: from slopes of Lineweaver-Burk plots versus inhibitor concentration, substrate ATCh, read-out: Ki ± SEM eeAChE
Sequence of eeAChE (O42275 24-633): as the sequence (O42275 24-633) above
Description: The slopes of the Lineweaver-Burk reciprocal plots against the concentrations of the compound (inhibitor) were plotted to obtain the Ki values for the prepared compounds (Table 1). The value at which the line intersects the x-axis is -Ki.
The assay was performed in triplicate using different inhibitor concentrations. […] The assay was carried out in clear, flat-bottom 96-well plates, to which 5 µL distilled water was added to all wells of columns 2–3, rows B-F. Then, 5 µL of the lowest concentration of inhibitor solution was added to the wells of columns 4–5, 5 µL of the median concentration of inhibitor solution was added to the wells of columns 6–7, and 5 µL of the highest concentration of inhibitor solution was added to the wells of columns 8–9. Next, 275 μL enzyme solution was added to the wells, and the plates were incubated for 4 min. Then, 10 μL 2.5 mM DTNB was added to the wells, followed by 10 μL of 32, 16, 8, 4, or 2 mM ATCh solutions to initiate the reactions. The plates were placed in a microplate reader for direct kinetic measurements.
The inhibition constant (Ki) for each inhibitor was calculated by averaging the ATCh hydrolysis rates from three independent experiments. Using GraphPad Prism 8 software, nonlinear regression was used to calculate the Km and Vmax values of the Michaelis-Menten kinetics by plotting [substrate] versus velocity. For the Lineweaver-Burk plots, linear regression was used to plot [1/ATCh] versus […]. Finally, the Ki values were obtained by plotting the slopes against [inhibitor] [20].

SMILES	Selectivity Index (SI) (AChE) [1]	IC50 [1]	IC50 [2]	ABTS Inhibition % ([3]; 0.0312 mg/mL)	ABTS Inhibition % ([3]; 0.0625 mg/mL)	ABTS Inhibition % ([3]; 0.125 mg/mL)	ABTS Inhibition % ([3]; 0.25 mg/mL)	ABTS Inhibition % ([3]; 0.5 mg/mL)	Ki [4]	Type of AChE inhibition (Lineweaver-Burk pattern) ([4]; slopes and intercepts increased with inhibitor concentration)
Cc1ccc(C[n+]2ccc(/C=C/C(=O)/C=C/c3ccccc3)cc2)cc1 [Compound 7d, 1–(4-Methylbenzyl)-4-(1E,4E)-3-oxo-5-phenylpenta-1,4-dien-1-yl)pyridin-1-ium bromide]	4	1.12 ± 0.00014 µM	4.5 ± 0.073 µM	–	–	–	–	–	–	–
O=C(/C=C/c1ccccc1)/C=C/c1cc[n+](Cc2ccc([N+](=O)[O-])cc2)cc1 [Compound 7e, 1–(4-Nitrobenzyl)-4-(1E,4E)-3-oxo-5-phenylpenta-1,4-dien-1-yl)pyridin-1-ium bromide]	5	0.8 ± 0.00012 µM	3.9 ± 0.052 µM	–	–	–	–	–	–	–
COc1cc(/C=C/C(=O)/C=C/c2ccc[n+](Cc3ccc(C)cc3)c2)ccc1O [Compound 8i, 3-(1E,4E)-5–(4-Hydroxy-3-methoxyphenyl)-3-oxopenta-1,4-dien-1-yl)-1–(4-methylbenzyl)pyridin-1-ium bromide]	11	0.27 ± 0.021 µM	2.5 ± 0.1 µM	–	–	–	–	–	–	–
Cc1c(C)c2c(c(C)c1O)CC[C@@](C)(CCC[C@H](C)CCC[C@H](C)CCCC(C)C)O2 [α-tocopherol, reference compound]	–	–	–	6.9 ± 2.3%	15.9 ± 1.0%	29.7 ± 1.3%	56.4 ± 0.72%	90.2 ± 0.04%	–	–
O=C(/C=C/c1ccccc1)/C=C/c1cc[n+](Cc2ccc(Br)cc2)cc1 [Compound 7c, 1–(4-Bromobenzyl)-4-(1E,4E)-3-oxo-5-phenylpenta-1,4-dien-1-yl)pyridin-1-ium bromide]	3	0.28 ± 0.0002 µM	–	–	–	–	–	–	–	–
COc1cc(/C=C/C(=O)/C=C/c2ccc[n+](Cc3ccc(Br)cc3)c2)ccc1O [Compound 8h, 1–(4-Bromobenzyl)-3-(1E,4E)-5–(4-hydroxy-3-methoxyphenyl)-3-oxopenta-1,4-dien-1-yl)pyridin-1-ium bromide]	3	0.63 ± 0.00022 µM	1.8 ± 0.121 µM	–	–	–	–	–	–	–
O=C(/C=C/c1ccccc1)/C=C/c1ccc[n+](Cc2ccc([N+](=O)[O-])cc2)c1 [Compound 8e, 1–(4-Nitrobenzyl)-3-(1E,4E)-3-oxo-5-phenylpenta-1,4-dien-1-yl)pyridin-1-ium bromide]	2	–	2.7 ± 0.063 µM	–	–	–	–	–	–	–
O=C(/C=C/c1ccccc1)/C=C/c1cc[n+](Cc2ccccc2)cc1 [Compound 7a, 1-Benzyl-4-(1E,4E)-3-oxo-5-phenylpenta-1,4-dien-1-yl)pyridin-1-ium bromide]	19	0.032 ± 0.00022 µM	–	1.4 ± 0.56%	1.5 ± 0.30%	1.7 ± 0.68%	3.5 ± 0.72%	6.4 ± 0.47%	0.039 ± 1.1e-05 µM	mixed-type inhibition
COc1cc(/C=C/C(=O)/C=C/c2cc[n+](Cc3ccc(C)cc3)cc2)ccc1O [Compound 7i, 4-(1E,4E)-5–(4-Hydroxy-3-methoxyphenyl)-3-oxopenta-1,4-dien-1-yl)-1–(4-methylbenzyl)pyridin-1-ium bromide]	3	0.22 ± 0.00017 µM	–	–	–	–	–	–	–	–
COc1cc(/C=C/C(=O)/C=C/c2cc[n+](Cc3ccccc3)cc2)ccc1O [Compound 7f, 1-Benzyl-4-(1E,4E)-5–(4-hydroxy-3-methoxyphenyl)-3-oxopenta-1,4-dien-1-yl)pyridin-1-ium bromide]	55	0.0075 µM	–	5.9 ± 0.47%	13.7 ± 0.50%	23.7 ± 0.51%	35.5 ± 0.93%	55.3 ± 1.42%	0.006 ± 3.6e-05 µM	–
O=C(/C=C/c1ccccc1)/C=C/c1ccc[n+](Cc2ccccc2)c1 [Compound 8a, 1-Benzyl-3-(1E,4E)-3-oxo-5-phenylpenta-1,4-dien-1-yl)pyridin-1-ium bromide]	14	≤ 0.056 µM and 0.056 µM	–	0.0 ± 0.70%	0.3 ± 0.28%	0.4 ± 0.36%	1.4 ± 0.49%	2.6 ± 0.38%	0.102 ± 8e-06 µM	–
COc1cc(/C=C/C(=O)/C=C/c2cc[n+](Cc3ccc(Br)cc3)cc2)ccc1O [Compound 7h, 1–(4-Bromobenzyl)-4-(1E,4E)-5–(4-hydroxy-3-methoxyphenyl)-3-oxopenta-1,4-dien-1-yl)pyridin-1-ium bromide]	10	0.71 ± 0.00016 µM	6.36 ± 0.106 µM	–	–	–	–	–	–	–
COc1cc(/C=C/C(=O)/C=C/c2ccc[n+](Cc3ccc([N+](=O)[O-])cc3)c2)ccc1O [Compound 8j, 3-(1E,4E)-5–(4-Hydroxy-3-methoxyphenyl)-3-oxopenta-1,4-dien-1-yl)-1–(4-nitrobenzyl)pyridin-1-ium bromide]	–	0.66 ± 0.00021 µM	9.8 ± 0.09 µM	–	–	–	–	–	–	–
Cc1c(C)c2c(c(C)c1O)CCC(C)(C(=O)O)O2 (stereo not shown) [Trolox, reference compound]	–	–	–	9.3 ± 1.2%	24.7 ± 1.2%	51.0 ± 2.3%	91.5 ± 1.8%	93.9 ± 0.1%	–	–
Cc1ccc(C[n+]2cccc(/C=C/C(=O)/C=C/c3ccccc3)c2)cc1 [Compound 8d, 1–(4-Methylbenzyl)-3-(1E,4E)-3-oxo-5-phenylpenta-1,4-dien-1-yl)pyridin-1-ium bromide]	4	0.63 ± 0.0002 µM	2.5 ± 0.079 µM	–	–	–	–	–	–	–
COc1cc(/C=C/C(=O)/C=C/c2cc[n+](Cc3ccc([N+](=O)[O-])cc3)cc2)ccc1O [Compound 7j, 4-(1E,4E)-5–(4-Hydroxy-3-methoxyphenyl)-3-oxopenta-1,4-dien-1-yl)-1–(4-nitrobenzyl)pyridin-1-ium bromide]	–	0.23 ± 0.00019 µM	1.4 ± 0.083 µM	–	–	–	–	–	–	–
O=C(/C=C/c1ccccc1)/C=C/c1ccc[n+](Cc2ccc(F)cc2)c1 [Compound 8b, 1–(4-Fluorobenzyl)-3-(1E,4E)-3-oxo-5-phenylpenta-1,4-dien-1-yl)pyridin-1-ium bromide]	7	≤ 0.056 µM and 0.054 µM	–	0.2 ± 0.40%	0.3 ± 0.22%	1.0 ± 0.52%	2.3 ± 0.64%	5.1 ± 0.62%	0.09 ± 1.2e-05 µM	–
O=C(/C=C/c1ccccc1)/C=C/c1ccc[n+](Cc2ccc(Br)cc2)c1 [Compound 8c, 1–(4-Bromobenzyl)-3-(1E,4E)-3-oxo-5-phenylpenta-1,4-dien-1-yl)pyridin-1-ium bromide]	1	1.16 ± 0.00017 µM	–	–	–	–	–	–	–	–
